Consider four molecules from US6492371B2, “Use of cyclic GMP-specific phosphodiesterase inhibitors for treatment of Parkinson's Disease” (priority 2000, dated 2002).

The conditions of data set [1]: oral, monotherapy; rapid peripheral metabolism by dopa decarboxylase and COMT; cited from earlier work.
For data set [2], the system named is effectiveness of L-dopa and dopaminergic ergot derivatives in PD. To be noted: therapy of PD, combination with L-dopa and lisuride; cited from earlier work.
Data set [3] relates to anti-parkinson action of bromocriptine. Particulars: patients with PD, concomitant caffeine and bromocriptine; cited from earlier work.
The subject of the next data set is Parkinson's symptoms. Briefly: Administration of a PDE5 inhibitor compound to a patient suffering from Parkinson's Disease. It counts as in vivo, human. To be noted: one patient with PD administered the PDE5 inhibitor. An excerpt:
The PDE5 inhibitor was 5-(2-ethoxy-5-(4-methyl-1-piperazinylsulphonyl)phenyl)-1-methyl-3-n-propyl-1,6-dihydro-7H-pyrazolo[4,3-d]pyrimidin-7-one, otherwise known as sildenafil citrate (Viagra®).

The structures appear in SMILES notation. Structures can show the parent of a compound that is named as a salt.

As to `N[C@@H](Cc1ccc(O)c(O)c1)C(=O)O` [L-dopa], the “fraction of orally administered L-dopa that penetrates into brain” value in data set [1] is “Less than 1%”.
For the molecule `COc1ccc(C2CNC(=O)C2)cc1OC1CCCC1` (stereo not shown) [Rolipram, rolipram], in data set [2], the “potentiation of the effect of L-dopa and lisuride” value is “failed to potentiate the effect of L-dopa and lisuride”.
With `Cn1c(=O)c2c(ncn2C)n(C)c1=O` [caffeine], in data set [3], the “potentiation of the anti-parkinson action of bromocriptine” value is “failed to potentiate the anti-parkinson action of bromocriptine”.
Consider `CCCc1nn(C)c2c(=O)[nH]c(-c3cc(S(=O)(=O)N4CCN(C)CC4)ccc3OCC)nc12` [sildenafil citrate, 5-(2-ethoxy-5-(4-methyl-1-piperazinylsulphonyl)phenyl)-1-methyl-3-n-propyl-1,6-dihydro-7H-pyrazolo[4,3-d]pyrimidin-7-one], for which the “effect on Parkinson's symptoms noted by the patient” value with Parkinson's symptoms was “an improvement in their Parkinson's symptoms”.
